Measurements reported in ChEMBL document CHEMBL1131433, “The bioactive conformation of aminoalkylindoles at the cannabinoid CB1 and CB2 receptors: insights gained from (E)- and (Z)-naphthylidene indenes” (J Med Chem, 1998).

organism: Cavia porcellus; experiment: Compound was evaluated for maximum inhibition of electrically evoked contractions of the myenteric plexus-longitudinal muscle of the Guinea pig small intestine; type: functional; conditions: Muscle tissue

SMILES	Emax [%]
Cc1c(C(=O)c2cccc3ccccc23)c2cccc3c2n1[C@H](CN1CCOCC1)CO3 [WIN-552122]	61.9

organism: Cavia porcellus; experiment: Compound was evaluated for inhibition of electrically evoked contractions of the myenteric plexus-longitudinal muscle of the Guinea pig small intestine; type: functional; conditions: Muscle tissue

SMILES	EC50 [µM]
C1=C(CCN2CCOCC2)c2ccccc2/C1=C\c1cccc2ccccc12	0.283
Cc1c(C(=O)c2cccc3ccccc23)c2cccc3c2n1[C@H](CN1CCOCC1)CO3 [WIN-552122]	0.00492
C1=C(CCN2CCOCC2)c2ccccc2/C1=C/c1cccc2ccccc12	0.00657
CC1=C(CCN2CCOCC2)c2ccccc2C1=Cc1cccc2ccccc12 [listing 1 of 2 here]	> 3.16
CC1=C(CCN2CCOCC2)c2ccccc2C1=Cc1cccc2ccccc12 [listing 2 of 2 here]	0.0529
